Experimental data as given in the kinase profiling compilation of Christmann-Franck et al. (2016).

What was measured:
Assay in all cases: Caliper, Mobility shift assay off-chip
[1] = target: BMX (human) (UniProt P51813)
[2] = target: CAMK2G (human) (UniProt Q13555)
[3] = target: CDC7 (human) (UniProt O00311)
[4] = target: CDK3 (human) (UniProt Q00526)
[5] = target: CIT (human) (UniProt O14578)
[6] = target: DDR1 (human) (UniProt Q08345)
[7] = target: EPHA5 (human) (UniProt P54756)
[8] = target: EPHB2 (human) (UniProt P29323)
Chain of EPHB2 (human) (P29323 whole entry, looked up): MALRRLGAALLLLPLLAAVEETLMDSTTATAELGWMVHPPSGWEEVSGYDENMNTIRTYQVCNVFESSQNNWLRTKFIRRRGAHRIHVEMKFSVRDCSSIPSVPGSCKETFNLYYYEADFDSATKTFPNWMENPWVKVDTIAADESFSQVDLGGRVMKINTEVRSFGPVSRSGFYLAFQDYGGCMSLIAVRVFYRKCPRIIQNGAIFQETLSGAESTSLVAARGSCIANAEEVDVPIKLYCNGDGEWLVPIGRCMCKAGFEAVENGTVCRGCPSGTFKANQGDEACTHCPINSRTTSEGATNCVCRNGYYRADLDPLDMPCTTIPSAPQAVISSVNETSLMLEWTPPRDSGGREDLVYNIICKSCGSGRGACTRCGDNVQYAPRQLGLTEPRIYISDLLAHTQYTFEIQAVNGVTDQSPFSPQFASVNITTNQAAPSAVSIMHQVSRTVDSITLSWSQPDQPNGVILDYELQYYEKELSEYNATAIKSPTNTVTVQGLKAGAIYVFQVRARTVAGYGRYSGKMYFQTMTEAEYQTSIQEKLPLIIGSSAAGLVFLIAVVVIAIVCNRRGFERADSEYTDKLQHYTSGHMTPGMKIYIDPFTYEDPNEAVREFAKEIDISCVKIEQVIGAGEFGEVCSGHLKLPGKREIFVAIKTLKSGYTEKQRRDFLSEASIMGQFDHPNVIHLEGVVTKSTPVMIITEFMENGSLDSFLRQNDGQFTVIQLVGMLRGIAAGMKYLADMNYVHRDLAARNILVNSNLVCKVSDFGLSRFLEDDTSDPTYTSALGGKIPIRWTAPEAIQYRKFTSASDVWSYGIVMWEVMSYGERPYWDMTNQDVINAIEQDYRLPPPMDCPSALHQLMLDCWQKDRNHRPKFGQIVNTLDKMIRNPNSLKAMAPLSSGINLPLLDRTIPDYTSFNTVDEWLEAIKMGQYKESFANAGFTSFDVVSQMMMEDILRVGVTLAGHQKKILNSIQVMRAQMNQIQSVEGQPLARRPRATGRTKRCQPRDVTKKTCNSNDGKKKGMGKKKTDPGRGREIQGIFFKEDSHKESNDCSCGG

[9] = target: FGR (human) (UniProt P09769)
[10] = target: FLT1 (human) (UniProt P17948)
[11] = target: HCK (human) (UniProt P08631)
Chain of HCK (human) (P08631 whole entry, looked up): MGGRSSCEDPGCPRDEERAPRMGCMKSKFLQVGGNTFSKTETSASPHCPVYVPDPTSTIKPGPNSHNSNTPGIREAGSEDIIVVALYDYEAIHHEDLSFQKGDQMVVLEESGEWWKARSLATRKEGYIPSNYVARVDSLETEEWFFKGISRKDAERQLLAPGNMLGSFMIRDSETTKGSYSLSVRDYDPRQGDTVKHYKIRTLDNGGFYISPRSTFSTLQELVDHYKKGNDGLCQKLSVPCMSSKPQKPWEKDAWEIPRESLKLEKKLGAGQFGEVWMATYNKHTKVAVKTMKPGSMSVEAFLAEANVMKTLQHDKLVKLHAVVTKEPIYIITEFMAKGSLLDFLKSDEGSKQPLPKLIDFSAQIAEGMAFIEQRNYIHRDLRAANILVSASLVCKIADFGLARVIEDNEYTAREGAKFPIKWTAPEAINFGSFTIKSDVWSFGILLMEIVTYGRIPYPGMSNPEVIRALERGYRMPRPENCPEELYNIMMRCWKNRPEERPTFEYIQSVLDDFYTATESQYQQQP

[12] = target: HIPK2 (human) (UniProt Q9H2X6)
[13] = target: INSR (human) (UniProt P06213)
[14] = target: KDR (human) (UniProt P35968)
[15] = target: MAPK10 (human) (UniProt P53779)
[16] = target: MAPK7 (human) (UniProt Q13164)
Chain of MAPK7 (human) (Q13164 whole entry, looked up): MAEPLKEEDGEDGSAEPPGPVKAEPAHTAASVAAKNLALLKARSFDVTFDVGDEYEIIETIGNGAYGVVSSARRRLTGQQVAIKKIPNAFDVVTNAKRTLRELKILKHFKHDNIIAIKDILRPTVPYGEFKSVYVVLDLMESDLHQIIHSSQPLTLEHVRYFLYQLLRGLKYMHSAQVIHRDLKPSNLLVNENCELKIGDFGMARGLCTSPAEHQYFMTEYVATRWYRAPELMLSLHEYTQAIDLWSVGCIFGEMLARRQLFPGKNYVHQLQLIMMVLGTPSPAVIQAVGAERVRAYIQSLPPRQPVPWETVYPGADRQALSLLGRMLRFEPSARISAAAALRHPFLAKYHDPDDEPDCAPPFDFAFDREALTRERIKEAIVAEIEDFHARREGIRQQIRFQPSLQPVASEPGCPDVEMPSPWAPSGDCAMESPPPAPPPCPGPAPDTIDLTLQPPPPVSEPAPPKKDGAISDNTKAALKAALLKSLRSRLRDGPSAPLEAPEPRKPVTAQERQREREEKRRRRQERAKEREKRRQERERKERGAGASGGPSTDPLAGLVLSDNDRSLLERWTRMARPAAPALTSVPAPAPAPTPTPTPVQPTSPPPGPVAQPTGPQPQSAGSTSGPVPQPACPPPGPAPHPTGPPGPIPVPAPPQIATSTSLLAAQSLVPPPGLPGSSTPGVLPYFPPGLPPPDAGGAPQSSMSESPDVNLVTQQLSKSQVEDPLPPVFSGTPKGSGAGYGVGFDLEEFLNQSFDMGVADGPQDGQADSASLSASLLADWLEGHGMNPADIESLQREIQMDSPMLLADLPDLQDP

[17] = target: MAPKAPK5 (human) (UniProt Q8IW41)
[18] = target: MARK4 (human) (UniProt Q96L34)
[19] = target: MERTK (human) (UniProt Q12866)
Chain of MERTK (human) (Q12866 whole entry, looked up): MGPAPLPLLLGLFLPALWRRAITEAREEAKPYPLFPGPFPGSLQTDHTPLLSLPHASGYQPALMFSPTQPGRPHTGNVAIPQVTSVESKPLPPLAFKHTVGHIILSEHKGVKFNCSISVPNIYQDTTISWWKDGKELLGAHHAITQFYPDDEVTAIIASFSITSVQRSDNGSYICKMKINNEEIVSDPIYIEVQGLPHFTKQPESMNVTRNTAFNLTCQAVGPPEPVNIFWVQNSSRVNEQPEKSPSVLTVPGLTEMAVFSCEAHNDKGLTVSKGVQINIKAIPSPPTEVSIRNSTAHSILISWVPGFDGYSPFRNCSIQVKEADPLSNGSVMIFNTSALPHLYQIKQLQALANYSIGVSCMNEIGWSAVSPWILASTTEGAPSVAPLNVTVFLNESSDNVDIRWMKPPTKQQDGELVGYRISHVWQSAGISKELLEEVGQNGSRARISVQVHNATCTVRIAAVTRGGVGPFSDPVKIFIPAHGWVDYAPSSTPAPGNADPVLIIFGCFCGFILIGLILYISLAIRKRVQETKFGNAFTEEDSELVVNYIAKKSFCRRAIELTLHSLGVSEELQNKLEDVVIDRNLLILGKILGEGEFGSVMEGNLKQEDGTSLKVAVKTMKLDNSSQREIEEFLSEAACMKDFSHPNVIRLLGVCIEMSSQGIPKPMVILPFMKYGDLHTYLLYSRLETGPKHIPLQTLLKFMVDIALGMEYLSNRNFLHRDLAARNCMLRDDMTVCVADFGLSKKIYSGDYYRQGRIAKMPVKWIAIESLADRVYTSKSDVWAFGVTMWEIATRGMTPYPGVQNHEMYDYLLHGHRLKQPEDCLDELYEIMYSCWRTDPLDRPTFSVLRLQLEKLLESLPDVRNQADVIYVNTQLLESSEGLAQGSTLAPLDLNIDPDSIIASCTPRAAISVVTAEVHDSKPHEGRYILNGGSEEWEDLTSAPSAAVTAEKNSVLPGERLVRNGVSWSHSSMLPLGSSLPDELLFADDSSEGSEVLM

[20] = target: MKNK1 (human) (UniProt Q9BUB5)
[21] = target: MKNK2 (human) (UniProt Q9HBH9)
[22] = target: NUAK2 (human) (UniProt Q9H093)
[23] = target: PAK2 (human) (UniProt Q13177)
[24] = target: PAK4 (human) (UniProt O96013)
[25] = target: PAK7 (human) (UniProt Q9P286)
Chain of PAK7 (human) (Q9P286 whole entry, looked up): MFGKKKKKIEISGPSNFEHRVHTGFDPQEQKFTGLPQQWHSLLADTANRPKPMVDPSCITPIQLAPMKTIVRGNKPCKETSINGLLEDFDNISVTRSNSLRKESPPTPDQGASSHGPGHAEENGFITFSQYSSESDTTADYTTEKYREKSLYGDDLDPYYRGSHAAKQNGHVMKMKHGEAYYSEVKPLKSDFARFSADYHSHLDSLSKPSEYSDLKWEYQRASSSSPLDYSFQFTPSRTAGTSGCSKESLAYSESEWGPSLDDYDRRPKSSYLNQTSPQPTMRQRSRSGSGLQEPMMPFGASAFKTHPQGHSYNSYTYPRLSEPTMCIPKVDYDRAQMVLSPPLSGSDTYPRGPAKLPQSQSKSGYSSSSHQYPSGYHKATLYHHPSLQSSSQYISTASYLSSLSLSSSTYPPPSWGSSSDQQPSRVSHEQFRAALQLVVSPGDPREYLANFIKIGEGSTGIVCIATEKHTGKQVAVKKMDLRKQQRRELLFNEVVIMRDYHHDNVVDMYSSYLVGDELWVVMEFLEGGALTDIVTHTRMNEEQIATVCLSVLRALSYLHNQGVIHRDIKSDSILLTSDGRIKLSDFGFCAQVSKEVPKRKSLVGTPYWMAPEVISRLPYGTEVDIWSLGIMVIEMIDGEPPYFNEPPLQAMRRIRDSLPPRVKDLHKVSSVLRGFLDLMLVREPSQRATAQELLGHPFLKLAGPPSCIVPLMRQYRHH

[26] = target: PDGFRA (human) (UniProt P16234)
[27] = target: PLK1 (human) (UniProt P53350)
[28] = target: PRKCE (human) (UniProt Q02156)
[29] = target: PRKCQ (human) (UniProt Q04759)
[30] = target: RET (human) (UniProt P07949)
[31] = target: SPHK2 (human) (UniProt Q9NRA0)
[32] = target: TEC (human) (UniProt P42680)
[33] = target: TNK1 (human) (UniProt Q13470)
[34] = target: TYRO3 (human) (UniProt Q06418)
[35] = target: YES1 (human) (UniProt P07947)

Chain of DDR1 (human) (Q08345 whole entry, looked up): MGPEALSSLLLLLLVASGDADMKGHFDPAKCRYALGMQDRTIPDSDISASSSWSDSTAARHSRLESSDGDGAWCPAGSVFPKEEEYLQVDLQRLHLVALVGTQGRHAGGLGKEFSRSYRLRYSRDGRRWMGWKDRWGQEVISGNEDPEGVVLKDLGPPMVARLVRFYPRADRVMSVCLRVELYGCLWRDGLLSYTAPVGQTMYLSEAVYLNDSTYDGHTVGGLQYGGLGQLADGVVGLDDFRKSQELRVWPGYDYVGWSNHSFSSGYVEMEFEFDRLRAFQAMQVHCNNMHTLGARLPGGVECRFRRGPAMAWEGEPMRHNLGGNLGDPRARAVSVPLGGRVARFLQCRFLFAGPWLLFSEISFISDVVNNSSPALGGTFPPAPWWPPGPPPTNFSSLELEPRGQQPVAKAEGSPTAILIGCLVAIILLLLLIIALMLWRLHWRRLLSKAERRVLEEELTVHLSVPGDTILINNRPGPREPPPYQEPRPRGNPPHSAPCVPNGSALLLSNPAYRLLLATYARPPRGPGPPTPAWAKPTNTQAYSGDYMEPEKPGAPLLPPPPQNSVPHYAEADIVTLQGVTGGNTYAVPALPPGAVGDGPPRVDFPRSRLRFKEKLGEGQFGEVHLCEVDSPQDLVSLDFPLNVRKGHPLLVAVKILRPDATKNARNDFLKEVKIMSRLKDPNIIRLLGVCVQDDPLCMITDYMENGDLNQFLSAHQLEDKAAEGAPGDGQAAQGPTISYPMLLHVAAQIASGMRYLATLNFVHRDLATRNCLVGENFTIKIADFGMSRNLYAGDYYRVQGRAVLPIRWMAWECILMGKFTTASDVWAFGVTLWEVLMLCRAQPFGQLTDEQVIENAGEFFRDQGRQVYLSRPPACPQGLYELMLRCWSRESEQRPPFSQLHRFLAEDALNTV

SMILES: COc1cc2c(Oc3ccc4[nH]c(C)cc4c3F)ncnc2cc1OCCCN1CCCC1
- inhibition ([1]; compound 0.02 µM): 8.4%
- inhibition ([1]; compound 0.2 µM): 7.1%
- inhibition ([2]; compound 0.02 µM): 0.2%
- inhibition ([2]; compound 0.2 µM): 1.5%
- inhibition ([3]; compound 0.02 µM): -3.4%
- inhibition ([3]; compound 0.2 µM): -0.7%
- inhibition ([4]; compound 0.02 µM): -3.3%
- inhibition ([4]; compound 0.2 µM): -1.1%
- inhibition ([5]; compound 0.02 µM): -3%
- inhibition ([5]; compound 0.2 µM): -1.6%
- inhibition ([6]; compound 0.02 µM): 25.7%
- inhibition ([6]; compound 0.2 µM): 95.3%
- inhibition ([7]; compound 0.02 µM): -0.9%
- inhibition ([7]; compound 0.2 µM): 7.6%
- inhibition ([8]; compound 0.02 µM): -4.3%
- inhibition ([8]; compound 0.2 µM): 8.7%
- inhibition ([9]; compound 0.02 µM): 12.6%
- inhibition ([9]; compound 0.2 µM): 27.6%
- inhibition ([10]; compound 0.02 µM): 91.6%
- inhibition ([10]; compound 0.2 µM): 102%
- inhibition ([11]; compound 0.02 µM): 0.4%
- inhibition ([11]; compound 0.2 µM): 21.1%
- inhibition ([12]; compound 0.02 µM): -1.7%
- inhibition ([12]; compound 0.2 µM): 0.7%
- inhibition ([13]; compound 0.02 µM): -0.3%
- inhibition ([13]; compound 0.2 µM): -2.4%
- inhibition ([14]; compound 0.02 µM): 96.3%
- inhibition ([14]; compound 0.2 µM): 101%
- inhibition ([15]; compound 0.02 µM): -2.9%
- inhibition ([15]; compound 0.2 µM): -6.5%
- inhibition ([16]; compound 0.02 µM): -8.6%
- inhibition ([16]; compound 0.2 µM): -6.2%
- inhibition ([17]; compound 0.02 µM): 2%
- inhibition ([17]; compound 0.2 µM): 0.1%
- inhibition ([18]; compound 0.02 µM): -7.1%
- inhibition ([18]; compound 0.2 µM): -7.3%
- inhibition ([19]; compound 0.02 µM): 3.6%
- inhibition ([19]; compound 0.2 µM): 5.9%
- inhibition ([20]; compound 0.02 µM): -2.9%
- inhibition ([20]; compound 0.2 µM): 2.6%
- inhibition ([21]; compound 0.02 µM): -3.7%
- inhibition ([21]; compound 0.2 µM): 1.2%
- inhibition ([22]; compound 0.02 µM): 8.9%
- inhibition ([22]; compound 0.2 µM): -17.5%
- inhibition ([23]; compound 0.02 µM): -4.1%
- inhibition ([23]; compound 0.2 µM): 3.5%
- inhibition ([24]; compound 0.02 µM): 6.5%
- inhibition ([24]; compound 0.2 µM): 0%
- inhibition ([25]; compound 0.02 µM): -5.8%
- inhibition ([25]; compound 0.2 µM): 7.3%
- inhibition ([26]; compound 0.02 µM): 39.2%
- inhibition ([26]; compound 0.2 µM): 86.9%
- inhibition ([27]; compound 0.02 µM): -0.1%
- inhibition ([27]; compound 0.2 µM): -2%
- inhibition ([28]; compound 0.02 µM): 7.2%
- inhibition ([28]; compound 0.2 µM): -3%
- inhibition ([29]; compound 0.02 µM): 8.9%
- inhibition ([29]; compound 0.2 µM): 3.7%
- inhibition ([30]; compound 0.02 µM): 76.8%
- inhibition ([30]; compound 0.2 µM): 98.7%
- inhibition ([31]; compound 0.02 µM): 6.4%
- inhibition ([31]; compound 0.2 µM): 2.8%
- inhibition ([32]; compound 0.02 µM): 4.5%
- inhibition ([32]; compound 0.2 µM): 5.3%
- inhibition ([33]; compound 0.02 µM): -2.8%
- inhibition ([33]; compound 0.2 µM): -1.2%
- inhibition ([34]; compound 0.02 µM): 7.9%
- inhibition ([34]; compound 0.2 µM): 40.5%
- inhibition ([35]; compound 0.02 µM): 26.9%
- inhibition ([35]; compound 0.2 µM): 73.7%

SMILES: CNC(=O)c1ccccc1Sc1ccc2c(/C=C/c3ccccn3)n[nH]c2c1
- inhibition ([1]; compound 0.001 µM): 7.1%
- inhibition ([1]; compound 0.02 µM): 4.9%
- inhibition ([2]; compound 0.001 µM): 0.2%
- inhibition ([2]; compound 0.02 µM): -1.1%
- inhibition ([3]; compound 0.001 µM): -4.9%
- inhibition ([3]; compound 0.02 µM): -5.8%
- inhibition ([4]; compound 0.001 µM): -4.2%
- inhibition ([4]; compound 0.02 µM): -4.8%
- inhibition ([5]; compound 0.001 µM): -2.2%
- inhibition ([5]; compound 0.02 µM): -4.4%
- inhibition ([6]; compound 0.001 µM): -7%
- inhibition ([6]; compound 0.02 µM): 1.9%
- inhibition ([7]; compound 0.001 µM): -5.3%
- inhibition ([7]; compound 0.02 µM): -3.9%
- inhibition ([8]; compound 0.001 µM): -6.4%
- inhibition ([8]; compound 0.02 µM): -5.2%
- inhibition ([9]; compound 0.001 µM): 8.2%
- inhibition ([9]; compound 0.02 µM): 25%
- inhibition ([10]; compound 0.001 µM): 25.3%
- inhibition ([10]; compound 0.02 µM): 99.3%
- inhibition ([11]; compound 0.02 µM): -7.8%
- inhibition ([12]; compound 0.001 µM): -4.6%
- inhibition ([12]; compound 0.02 µM): -0.1%
- inhibition ([13]; compound 0.001 µM): -0.3%
- inhibition ([13]; compound 0.02 µM): -8.6%
- inhibition ([14]; compound 0.001 µM): 47.3%
- inhibition ([14]; compound 0.02 µM): 97.4%
- inhibition ([15]; compound 0.001 µM): -5%
- inhibition ([15]; compound 0.02 µM): -4.4%
- inhibition ([16]; compound 0.001 µM): -9.5%
- inhibition ([16]; compound 0.02 µM): -9.5%
- inhibition ([17]; compound 0.001 µM): -1.5%
- inhibition ([17]; compound 0.02 µM): 1.6%
- inhibition ([18]; compound 0.001 µM): -14.2%
- inhibition ([18]; compound 0.02 µM): -4.7%
- inhibition ([19]; compound 0.001 µM): 1%
- inhibition ([19]; compound 0.02 µM): 3.9%
- inhibition ([20]; compound 0.001 µM): -6.1%
- inhibition ([20]; compound 0.02 µM): 4.1%
- inhibition ([21]; compound 0.001 µM): 0.4%
- inhibition ([21]; compound 0.02 µM): 1.4%
- inhibition ([22]; compound 0.001 µM): 9.9%
- inhibition ([22]; compound 0.02 µM): -0.7%
- inhibition ([23]; compound 0.001 µM): -3.6%
- inhibition ([23]; compound 0.02 µM): 4.1%
- inhibition ([24]; compound 0.001 µM): 3.3%
- inhibition ([24]; compound 0.02 µM): 0.8%
- inhibition ([25]; compound 0.001 µM): -2.5%
- inhibition ([25]; compound 0.02 µM): 7%
- inhibition ([26]; compound 0.001 µM): 33.1%
- inhibition ([27]; compound 0.001 µM): -5%
- inhibition ([27]; compound 0.02 µM): -2.2%
- inhibition ([28]; compound 0.001 µM): 4.4%
- inhibition ([28]; compound 0.02 µM): -4.2%
- inhibition ([29]; compound 0.001 µM): 9.9%
- inhibition ([29]; compound 0.02 µM): -1.9%
- inhibition ([31]; compound 0.001 µM): 2.8%
- inhibition ([31]; compound 0.02 µM): -4.8%
- inhibition ([32]; compound 0.001 µM): 3.2%
- inhibition ([32]; compound 0.02 µM): -3.2%
- inhibition ([33]; compound 0.001 µM): 26.9%
- inhibition ([33]; compound 0.02 µM): 24.8%
- inhibition ([34]; compound 0.001 µM): -1.2%
- inhibition ([34]; compound 0.02 µM): -2%
- inhibition ([35]; compound 0.001 µM): 5.9%
